Reference: patent US20220363665A1, “QUINOLINE COMPOUNDS FOR THE TREATMENT OF AUTOIMMUNE DISEASE” (Hoffmann-La Roche Inc., priority 2019, published 2022)
pIC50: −log10 of the molar value.

Target: T1, human TLR7 (Homo sapiens, UniProt Q9NYK1)
T1 construct: host or cells: HEK293 (HEK-Blue hTLR7)
T1 sequence (Q9NYK1 27-1049): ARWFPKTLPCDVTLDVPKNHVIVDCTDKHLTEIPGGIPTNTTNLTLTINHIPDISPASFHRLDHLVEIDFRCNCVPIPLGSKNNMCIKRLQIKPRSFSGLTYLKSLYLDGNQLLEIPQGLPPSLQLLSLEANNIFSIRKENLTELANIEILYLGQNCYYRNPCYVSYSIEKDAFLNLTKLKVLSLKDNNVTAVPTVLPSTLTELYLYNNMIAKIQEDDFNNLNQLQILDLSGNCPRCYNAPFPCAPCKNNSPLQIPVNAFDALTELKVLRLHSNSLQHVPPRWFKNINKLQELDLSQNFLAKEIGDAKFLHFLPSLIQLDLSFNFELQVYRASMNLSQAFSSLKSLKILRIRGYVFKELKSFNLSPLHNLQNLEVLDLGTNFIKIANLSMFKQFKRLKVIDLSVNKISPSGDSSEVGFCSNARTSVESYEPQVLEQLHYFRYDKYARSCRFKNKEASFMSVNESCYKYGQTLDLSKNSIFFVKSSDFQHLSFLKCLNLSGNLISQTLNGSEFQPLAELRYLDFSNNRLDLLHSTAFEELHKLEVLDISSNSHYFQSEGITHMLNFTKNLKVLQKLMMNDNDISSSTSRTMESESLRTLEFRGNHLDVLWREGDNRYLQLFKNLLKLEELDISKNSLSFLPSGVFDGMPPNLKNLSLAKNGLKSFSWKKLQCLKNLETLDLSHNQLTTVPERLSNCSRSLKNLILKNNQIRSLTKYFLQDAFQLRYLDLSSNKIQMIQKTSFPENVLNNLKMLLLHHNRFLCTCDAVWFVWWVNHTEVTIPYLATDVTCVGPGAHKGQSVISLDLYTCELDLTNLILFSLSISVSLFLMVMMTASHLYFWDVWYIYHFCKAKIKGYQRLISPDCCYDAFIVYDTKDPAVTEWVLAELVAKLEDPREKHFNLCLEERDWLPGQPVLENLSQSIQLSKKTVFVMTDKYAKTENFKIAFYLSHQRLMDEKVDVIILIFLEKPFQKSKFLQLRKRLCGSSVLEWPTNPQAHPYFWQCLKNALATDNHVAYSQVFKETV
Assay: HEK293-Blue-hTLR-7 cells assay (SEAP reporter, R848 stimulation)
Format: cell-based
Details: HEK293-Blue-hTLR7 cells, R848, 20 hrs
Method: The following tests were carried out in order to determine the activity of the compounds of formula (I) in HEK293-Blue-hTLR-7/8/9 cells assay.
HEK293-Blue-hTLR-7 Cells Assay:
A stable HEK293-Blue-hTLR-7 cell line was purchased from InvivoGen (Cat. #: hkb-htlr7, San Diego, Calif. USA). These cells were originally designed for studying the stimulation of human TLR7 by monitoring the activation of NF-κB. A SEAP (secreted embryonic alkaline phosphatase) reporter gene was placed under the control of the IFN-β minimal promoter fused to five NF-κB and AP-1-binding sites. The SEAP was induced by activating NF-κB and AP-1 via stimulating HEK-Blue hTLR7 cells with TLR7 ligands. Therefore the reporter expression was declined by TLR7 antagonist under the stimulation of a ligand, such as R848 (Resiquimod), for incubation of 20 hrs. The cell culture supernatant SEAP reporter activity was determined using QUANTI-Blue™ kit (Cat. #: rep-qbl, Invivogen, San Diego, Calif., USA) at a wavelength of 640 nm, a detection medium that turns purple or blue in the presence of alkaline phosphatase.
HEK293-Blue-hTLR7 cells were incubated at a density of 250,000˜450,000 cells/mL in a volume of 170 μL in a 96-well plate in Dulbecco's Modified Eagle's medium (DMEM) containing 4.5 g/L glucose, 50 U/mL penicillin, […], […], 2 mM L-glutamine, 10% (v/v) heat-inactivated fetal bovine serum with addition of 20 μL A test compound in a serial dilution in the presence of final DMSO at 1% and 10 μL of 20 uM R848 in above DMEM, perform incubation under 37° C. in a CO2 incubator for 20 hrs. Then 20 μL of the supernatant from each well was incubated with 180 μQuanti-blue substrate solution at 37° C. for 2 hrs and the absorbance was read at 620˜655 nm using a spectrophotometer. The signalling pathway that TLR7 activation leads to downstream NF-κB activation has been widely accepted, and therefore similar reporter assay was modified for evaluating TLR7 antagonist.

Compound | pIC50
C[C@@H]1CN(c2ccc(C(F)(F)F)c3ncccc23)C[C@H](C(=O)N[C@@H]2CNC[C@@H]2F)O1 (single isomer, unassigned) [Example 2A] | 7.39
C[C@@H]1CN(c2ccc(C(F)(F)F)c3ncccc23)C[C@H](C(=O)N[C@H]2CNC[C@H]2F)O1 (single isomer, unassigned) [Example 2B] | 7.82
C[C@@H]1CN(c2ccc(C(F)(F)F)c3ncccc23)C[C@H](C(=O)NC2CC3CCCC(C2)N3)O1 (single isomer, unassigned) [Example 34A] | 8.40
C[C@@H]1CN(c2ccc(C(F)(F)F)c3ncccc23)C[C@H](C(=O)NC2CC3CCCC(C2)N3)O1 (single isomer, unassigned) [Example 34B] | 8.15
CC(NC(=O)[C@H]1CN(c2ccc(C(F)(F)F)c3ncccc23)C[C@@H](C)O1)C1CN(C)CCO1 (single isomer, unassigned) [Example 35A] | 7.55
CC(NC(=O)[C@H]1CN(c2ccc(C(F)(F)F)c3ncccc23)C[C@@H](C)O1)C1CN(C)CCO1 (single isomer, unassigned) [Example 35B] | 7.19
C[C@@H]1CN(c2ccc(C(F)(F)F)c3ncccc23)C[C@H](C(=O)NC2C3CNCC2COC3)O1 (single isomer, unassigned) [Example 46A] | 8.10
C[C@@H]1CN(c2ccc(C(F)(F)F)c3ncccc23)C[C@H](C(=O)NC2C3CNCC2COC3)O1 (single isomer, unassigned) [Example 46B] | 7.68
C[C@@H]1CN(c2ccc(C(F)(F)F)c3ncccc23)C[C@H](C(=O)NC2CC3CCC(C2)N3)O1 (single isomer, unassigned) [Example 47A] | > 8.52
C[C@@H]1CN(c2ccc(C(F)(F)F)c3ncccc23)C[C@H](C(=O)NC2CC3CCC(C2)N3)O1 (single isomer, unassigned) [Example 47B] | > 8.52
C[C@@H]1CN(c2ccc(C(F)(F)F)c3ncccc23)C[C@H](C(=O)NC2CC3CNCC32)O1 (single isomer, unassigned) [Example 49A] | 7.60
C[C@@H]1CN(c2ccc(C(F)(F)F)c3ncccc23)C[C@H](C(=O)NC2CC3CNCC32)O1 (single isomer, unassigned) [Example 49B] | 7.70
C[C@@H]1CN(c2ccc(C(F)(F)F)c3ncccc23)C[C@H](C(=O)NC2CC3CNCC32)O1 (single isomer, unassigned) [Example 49C] | 8.10
C[C@H]1C[C@@H](N)CN(c2ccc(C(F)(F)F)c3ncccc23)C1 [Example 1, (3R,5S)-5-methyl-1-[8-(trifluoromethyl)-5-quinolyl]piperidin-3-amine] | 8.30
C[C@@H]1CN(c2ccc(C(F)(F)F)c3ncccc23)C[C@H](C(=O)NC2CNC[C@@H]2F)O1 (stereo partly drawn) [Example 2, cis-(2R,6R)-N-(4-fluoropyrrolidin-3-yl)-6-methyl-4-[8-(trifluoromethyl)-5-quinolyl]morpholine-2-carboxamide] | 7.28
C[C@@H]1CN(c2ccc(C(F)(F)F)c3ncccc23)C[C@H](C(=O)NCC2CN(C)CCO2)O1 (stereo partly drawn) [Example 3, (2R,6R)-6-methyl-N-[(4-methylmorpholin-2-yl)methyl]-4-[8-(trifluoromethyl)-5-quinolyl]morpholine-2-carboxamide] | 7.92
C[C@@H]1CN(c2ccc(C(F)(F)F)c3ncccc23)C[C@H](C(=O)NCC2CCCCN2C)O1 (stereo partly drawn) [Example 4, (2R,6R)-6-methyl-N-[(1-methyl-2-piperidyl)methyl]-4-[8-(trifluoromethyl)-5-quinolyl]morpholine-2-carboxamide] | 8.22
C[C@@H]1CN(c2ccc(C(F)(F)F)c3ncccc23)C[C@H](C(=O)NC2CCN(C)CC2)O1 [Example 5, (2R,6R)-6-methyl-N-(1-methyl-4-piperidyl)-4-[8-(trifluoromethyl)-5-quinolyl]morpholine-2-carboxamide] | 8.15
C[C@@H]1CN(c2ccc(C(F)(F)F)c3ncccc23)C[C@H](C(=O)NCC(C)(C)N)O1 [Example 6, (2R,6R)-N-(2-amino-2-methyl-propyl)-6-methyl-4-[8-(trifluoromethyl)-5-quinolyl]morpholine-2-carboxamide] | 7.51
C[C@@H]1CN(c2ccc(C(F)(F)F)c3ncccc23)C[C@H](C(=O)N2CC(N)C2)O1 [Example 7, (3-aminoazetidin-1-yl)-[(2R,6R)-6-methyl-4-[8-(trifluoromethyl)-5-quinolyl]morpholin-2-yl]methanone] | 7.20
C[C@@H]1CN(c2ccc(C(F)(F)F)c3ncccc23)C[C@H](C(=O)NC2CCCNCC2)O1 (stereo partly drawn) [Example 8, (2R,6R)-N-(azepan-4-yl)-6-methyl-4-[8-(trifluoromethyl)-5-quinolyl]morpholine-2-carboxamide] | 8.40
C[C@@H]1CN(c2ccc(C(F)(F)F)c3ncccc23)C[C@H](C(=O)NC2CN(C)CC23CC3)O1 (stereo partly drawn) [Example 9, (2R,6R)-6-methyl-N-(5-methyl-5-azaspiro[2.4]heptan-7-yl)-4-[8-(trifluoromethyl)-5-quinolyl]morpholine-2-carboxamide] | 7.85
C[C@@H]1CN(c2ccc(C(F)(F)F)c3ncccc23)C[C@H](C(=O)N2CCC(N)C2)O1 (stereo partly drawn) [Example 10, (3-aminopyrrolidin-1-yl)-[(2R,6R)-6-methyl-4-[8-(trifluoromethyl)-5-quinolyl]morpholin-2-yl]methanone] | 6.44
C[C@@H]1CN(c2ccc(C(F)(F)F)c3ncccc23)C[C@H](C(=O)NCC2COCCN2C)O1 (stereo partly drawn) [Example 11, (2R,6R)-6-methyl-N-[(4-methylmorpholin-3-yl)methyl]-4-[8-(trifluoromethyl)-5-quinolyl]morpholine-2-carboxamide] | 7.29
C[C@@H]1CN(c2ccc(C(F)(F)F)c3ncccc23)C[C@H](C(=O)N2CCC(N)CC2)O1 [Example 12, (4-amino-1-piperidyl)-[(2R,6R)-6-methyl-4-[8-(trifluoromethyl)-5-quinolyl]morpholin-2-yl]methanone] | 6.82
C[C@@H]1CN(c2ccc(C(F)(F)F)c3ncccc23)C[C@H](C(=O)NCCN2CCOCC2)O1 [Example 13, (2R,6R)-6-methyl-N-(2-morpholinoethyl)-4-[8-(trifluoromethyl)-5-quinolyl]morpholine-2-carboxamide] | 6.54
C[C@@H]1CN(c2ccc(C(F)(F)F)c3ncccc23)C[C@H](C(=O)NC2CNCCOC2)O1 (stereo partly drawn) [Example 14, (2R,6R)-6-methyl-N-(1,4-oxazepan-6-yl)-4-[8-(trifluoromethyl)-5-quinolyl]morpholine-2-carboxamide] | 7.43
Cc1ccc(N2C[C@@H](C)C[C@@H](N)C2)c2cccnc12 [Example 15, (3R,5S)-5-methyl-1-(8-methyl-5-quinolyl)piperidin-3-amine] | 7.52
Cc1ccc(N2C[C@@H](C)O[C@@H](C(=O)NC3CCN(C)CC3)C2)c2cccnc12 [Example 16, (2R,6R)-6-methyl-N-(1-methyl-4-piperidyl)-4-(8-methyl-5-quinolyl)morpholine-2-carboxamide] | 7.13
Cc1ccc(N2C[C@@H](C)O[C@@H](C(=O)NCC3CN(C)CCO3)C2)c2cccnc12 (stereo partly drawn) [Example 17, (2R,6R)-6-methyl-N-[(4-methylmorpholin-2-yl)methyl]-4-(8-methyl-5-quinolyl)morpholine-2-carboxamide] | 6.85
